Key:
[1] = system: Male C57/BL6 mice; assay: MPTP animal model (neurobehavioral outcome); assay type: in vivo; conditions: 30 mg/kg/day ip; for functional deficit produced by MPTP: days 1-3; for functional outcome versus vehicle treated animals: days 1 and 2, comparable to negative control group
Experimental: In vivo evaluation is carried out using mice that have been treated with 1-methyl-4-phenyl-1,2,3,6-tetrahydropyridine (MPTP), a neurotoxin. […] In a number of species, including humans, […] and rodents, MPTP produces an irreversible and severe parkinsonian syndrome which includes virtually all the clinical features of the disease.
Male C57/BL6 mice (Harlan, Ind.), weight 25-30 g, were used in all studies. MPTP-HCl (Sigma) was administered i.p. according to one of the following protocols. The maximum volume which was given per injection is 200 μL. In all studies, animals were euthanized with carbon dioxide and, brains were removed for subsequent determination of dopamine depletion where appropriate.
Animals received 25 mg/kg of MPTP once a day for 5 consecutive days. The end point was 2 days after the final dose.
Animals received 4×20 mg/kg of MPTP at 2 hour intervals. The end point was at either 7 or 14 days.
Animals received 2×40 mg/kg of MPTP with this repeated 16 hours later. The end point was at either 14 or 28 days.
Animals received 25 mg/kg of MPTP, given twice weekly for 5 weeks. The end point was either 1, 3 or 24 weeks after the final dose.
Compound efficacy was examined with the use of neurobehavioral models. These models allowed the determination of a given compound's ability to reverse the motor deficits seen with MPTP treatment.
All animals received pre-training for the individual model and a baseline reading was obtained one day prior to the commencement of MPTP treatment.
The open field test was carried out in a clear, acrylic open box 60 cm×60 cm. The base of the box was marked into a 5×5 grid of […] squares. Animals were individually placed in the box and allowed to roam free. The number of squares an animal crossed in a 90 second time period was recorded. In order to be scored, the animal must either have had all four limbs within a given square or, all four limbs must have left a given square.
A tactile stimulus (0.5×0.5 cm square of “sticky tape”) was applied to each side of the animal's face and the time taken to remove it is recorded. The following measurements were recorded: • a. Latency to contact left side tape • b. Latency to contact right side tape • c. Order of side contacted (left vs. right) • d. Latency to remove left side tape • e. Latency to remove right side tape Pole Test
A rough surfaced metal pole (diameter 8 mm, height 50 cm) protruding from a cage filled with animal bedding was used for this test. Animals were placed head upwards at the top of the pole. They were required to turn and descend face downwards and the time taken for this was recorded (latency to reach bedding). Timing was started when the individual animal gripped the top of the pole and was stopped when all four limbs contacted the bedding.
All test compounds were administered ip. The maximum volume which was given per injection was 200 μL. Compounds were dosed up to twice daily, two days prior and 7 days post MPTP treatment.
A baseline reading was taken for each animal one day prior to MPTP treatment. All subsequent readings were normalized to the individual animal's baseline. Values were expressed as a percent baseline.
Data was percent baseline and expressed as mean±std dev: […]
Compound and vehicle given for 9 days in total, 2 days prior to MPTP and 7 days after MPTP treatment. L-DOPA given 1 hour prior to the pole test, each day.

[2] = system: FRDA fibroblasts; assay: FRDA fibroblast assay for protection from oxidative stress; assay type: cell-based; conditions: Homo sapiens, 24 h preincubation, 1 mM BSO, compared to untreated FRDA fibroblasts, read-out: EC50 for reduction of cell death in FRDA fibroblasts
Text: A cellular assay using FRDA-patient derived fibroblasts (as described by Jauslin, M L et al, Human Molecular Genetics 11; 3055-3063 (2002)); is used to determine the cell protecting effect of the test compounds by analyzing survival of dermal fibroblasts taken from FRDA patients and unaffected normal donors under conditions of partial GSH depletion. Exposure of FRDA fibroblasts to BSO (L-buthionine (S,R)-sulfoximine) under conditions of restricted selenium causes depletion of cellular glutathione (GSH) and severe plasma membrane damage leading to cell death. Preincubation with the test compounds before the addition of BSO is used to determine if they can protect FRDA cells from BSO-mediated cell death.
Primary fibroblasts were derived from donors with a molecular diagnosis of FRDA and control donors with no mitochondrial disease. Lines F2, C2 and C3 were obtained from Coriell Cell Repositories (Camden, N.J., USA; catalog #'s GM04078, GM 08402 and GM08399, respectively). All cell types were diagnosed at the molecular level for intronic GAA triplet repeat length in the trataxin gene using a PCR-based method, according to methods known in the art. […] The cells were seeded in microtiter plates at a density of 4000 cells per 100 μl in growth medium consisting of 25% (v/v) M199 EBS and 64% (v/v) MEM EBS without phenol red (Bioconcept, Allschwil, Switzerland) supplemented with 10% (v/v) fetal calf serum (PAA Laboratories, Linz, Austria), 100 U/ml penicillin, 100 μg/ml streptomycin (PAA Laboratories, Linz, Austria), 10 μg/ml insulin (Sigma, Buchs, Switzerland), 10 μg/ml EGF (Sigma, Buchs, Switzerland), 10 μg/ml bFGF (PreproTech, Rocky Hill, N.J., USA) and 2 mM glutamine (Sigma, Buchs, Switzerland). The cells were incubated in the presence of the various test compounds for 24 h before addition of 1 mM BSO (L-buthionine (S,R)-sulfoximine).
Cell viability was measured after the first signs of toxicity appeared in the BSO-treated controls (typically after 16-48 h). The cells were stained for 60 min at room temperature in PBS with 1.2 μm calceinAM and 4 μm ethidium homodimer (Live/Dead assay, Molecular Probes, Eugene, Oreg., USA). Fluorescence intensity was measured with a Gemini Spectramax XS spectrofluorimeter (Molecular Devices, Sunnyvale, Calif., USA) using excitation and emission wavelengths of 485 and 525 nm, respectively.

[3] = system: dopaminergic neuronal cell line; assay: High glutamate-induced oxidative stress assay (HGOS); assay type: cell-based; conditions: Mus musculus; 30 mM glutamate, 16 hrs, Cell Tracker Green; read-out: EC50 for protection against HGOS cell injury and cell death
Text: Protection against redox stress can be further evaluated in cell culture using high glutamate induced oxidative stress (HGOS) in mouse dopaminergic cell lines. The cytotoxic effect of glutamate is not due to excitotoxicity, as this cell line is devoid of inotropic glutamate receptors. Rather, the glutamate-induced toxicity of dopaminergic cells is associated with an inhibition of cystine transport which subsequently leads to depletion of intracellular glutathione (GSH) levels (Murphy T. H., et al. Neuron 2, 1547-1558, 1989), activation of neuronal 12-lipoxygenase (Li, Y. et al., Neuron 19,453-463, 1997), increased ROS production (Tan S. et al., J. Cell Biol. 141, 1423-1432, 1998) and elevated intracellular Ca^2+ (Li, Y. et al., see supra). Some molecules were measured for their ability to protect such cells against glutamate-induced stress and the assay is detailed in Examples.
This procedure was used to induce high glutamate-induced oxidative stress (HGOS) in a dopaminergic neuronal cell line. Using this assay the potency and efficacy of test articles against HGOS neuronal cell injury and cell death was established in a high throughput manner.
The cells were seeded into 96-well plates at a density of 2000 per well and left to grow for 72 hours in a 33° C. incubator with 5% CO2 in air atmosphere. The passage number of the cells for each assay experiment were no later than p11 in order to minimize experimental variation.
All compounds were dissolved in DMEM-No Glu containing 1 mM glucose, 30 mM glutamate and 1× Pen/Strep. DMEM-No Glu with 1 mM glucose and 1×P/S was used as the negative control, DMEM-No Glucose with 1 mM glucose, […] was used as a positive control and 100 μM Glutathione was added to the positive control as a standard. All of the procedures for this involving the making and dilution of compounds were performed using aseptic conditions and with minimal light.
The plates were removed from the incubator and examined under the microscope for morphological appearance and density. Using an aseptic technique and an 8-channel aspirator the media was carefully removed from the cells and replaced with 200 μl of 1×HBSS. This was done as quickly as possible to prevent the cells drying out. The plates were then placed in the humidified 37° C. incubators of the Biomek 2000 Side Loader. Four plates were washed at a time so as to minimize the time that the cells were sitting in 1×HBSS prior to addition of the compound test solution.
The Beckman Biomek workstations were used to load the compounds and controls from the mother plates onto the cell plates that were prewashed with HBSS under sterile conditions. The plates were incubated in the upper HTS incubator at 37° C. in 5% CO2 for exactly 16 hrs. The following day, using the Beckman Biomek workstations, the plates were removed from the incubator. Using Cell Tracker Addition, the compounds were removed from the plates, washed once with […] of pre-warmed 1×HBSS and then 100 μL of 5 μM Cell Tracker Green was added to each well. The plates were incubated at 37° C. for 30 min to allow the dye to enter the cell and be cleaved by the esterases. After washing the cells twice with prewarmed 1×HBSS, the plates were read with the 485 excitation; 538 emission filter pair on a Fluoroskan.

Row | SMILES | functional deficit produced by MPTP [1] | functional outcome versus vehicle treated animals [1] | EC50 [2] | EC50 [3]
1 | Cc1c(O)cc2c(c1C)OC(C)(C)C=C2 [2,2,7,8-Tetramethyl-2H-chromen-6-ol] | significantly reduced | significantly better | 0.01 to 6 µM | –
2 | CC(C)=CCc1c(O)c(C)c(C)c2c1CCC(C)(C)O2 [2,2,7,8-Tetramethyl-5-(3-methyl-but-2-enyl)-chroman-6-ol] | significantly reduced | significantly better | – | –
3 | COC(=O)CCC1(C)CCc2c(Br)c(O)c(C)c(C)c2O1 (centres unmarked) [3-(5-Bromo-6-hydroxy-2,7,8-trimethyl-chroman-2-yl)-propionic acid methyl ester] | significantly reduced | significantly better | 0.01 to 6 µM | ≤ 5 µM
4 | Cc1cc(O)cc2c1OC(C)(CCC(=O)O)CC2 (centres unmarked) [3-(6-Hydroxy-2,8-dimethyl-chroman-2-yl)-propionic acid] | significantly reduced | significantly better | 0.01 to 6 µM | –
5 | CC(C)=CCc1c(O)c(C)c(C)c2c1CCC(C)(CCC(=O)O)O2 (centres unmarked) [3-[6-Hydroxy-2,7,8-trimethyl-5-(3-methyl-but-2-enyl)-chroman-2-yl]-propionic acid] | significantly reduced | significantly better | – | –
6 | COC(=O)CSCc1c(O)c(C)c(C)c2c1CCC(C)(C)O2 [(6-Hydroxy-2,2,7,8-tetramethyl-chroman-5-ylmethylsulfanyl)-acetic acid methyl ester] | significantly reduced | significantly better | – | ≤ 5 µM

Source: patent US20050065099A1, “Treatment of mitochondrial diseases” (priority 2003, published 2005)
